Assay results reported in article PMC6743335 (Journal of the American Chemical Society, 2018).

Target: T1, human ATR (adenosyltransferase) (Homo sapiens, UniProt Q96EY8)
T1 sequence (Q96EY8 33-250 limits assumed): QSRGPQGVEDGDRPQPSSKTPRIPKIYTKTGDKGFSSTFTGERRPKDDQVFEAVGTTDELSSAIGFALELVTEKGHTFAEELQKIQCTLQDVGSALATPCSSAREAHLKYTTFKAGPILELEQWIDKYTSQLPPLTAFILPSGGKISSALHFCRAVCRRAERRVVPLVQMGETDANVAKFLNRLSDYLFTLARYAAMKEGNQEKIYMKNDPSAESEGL
Assay: binding, method in supplement
Conditions: ATP in the third site of the crystal with Mg

For Nc1ncnc2c1ncn2[C@@H]1O[C@H](COP(=O)(O)OP(=O)(O)OP(=O)(O)O)[C@@H](O)[C@H]1O [ATP], the Kd was “Electron density for AdoCbl was observed in two active sites”.
